Measurements as given in patent US20170342025A1, “ANTIMICROBIAL COMPOUNDS, COMPOSITIONS AND METHODS” (Swansea University, priority 2014, published 2017).
Like-named read-outs stand apart in the source and are kept apart here.

Experiments:
[1] = system: Staphylococcus aureus (strain 9518); assay: MIC determination against Staphylococcus aureus (Andrews protocol); format: cell-based; settings: for MIC: Staphylococcus aureus, read-out: MIC S. aureus
Experimental: (§1) Minimum Inhibitory Concentrations (MICs) for the compounds prepared were determined against Escherichia coli (strain JM109) and Staphylococcus aureus (strain 9518) using the protocols described by Andrews (J. Antimicrob. Chemother., 2001, 48, Suppl. S1, 5-16).

[2] = system: Escherichia coli (strain JM109); assay: MIC determination against Escherichia coli (Andrews protocol); format: cell-based; settings: for MIC: Escherichia coli, read-out: MIC E. coli
Experimental: as §1

[3] = Staphylococcus aureus strain 9518

Row | melting point | MIC [1, 3] | MIC ([2]; Escherichia coli strain JM109) | SMILES | other results
1 | 250 to 253 °C | 32 to 100 µg/mL | 1 to 10 µg/mL | Cl.N=C(N)N/N=C/c1cccc(OCc2cccc(Cl)c2Cl)c1Cl [Compound 51d, (E)-Amino(2-(2-chloro-3-((2,3-dichlorobenzyl)oxy)benzylidene)hydrazinyl) methaniminium chloride] | 
2 | 274 to 277 °C | 32 to 100 µg/mL | 1 to 10 µg/mL | Cl.N=C(N)N/N=C/c1cccc(OCc2cccc(C(F)(F)F)c2Cl)c1Cl [Compound 51e, (E)-Amino(2-(2-chloro-3-((2-chloro-3-(trifluoromethyl)benzyl)oxy)benzylidene) hydrazinyl)methaniminium chloride] | 
3 | 268 to 270 °C | 32 to 100 µg/mL | 1 to 10 µg/mL | Cl.N=C(N)N/N=C/c1cccc(OCc2ccc(Cl)cc2Cl)c1Cl [Compound 51f, (E)-Amino(2-(2-chloro-3-((2,4-dichlorobenzyl)oxy)benzylidene)hydrazinyl) methaniminium chloride] | 
4 | 242 to 244 °C | 32 to 100 µg/mL | 10 to 32 µg/mL | Cl.N=C(N)N/N=C/c1cccc(OCc2cc(Cl)ccc2Cl)c1Cl [Compound 51g, (E)-Amino(2-(2-chloro-3-((2,5-dichlorobenzyl)oxy)benzylidene)hydrazinyl) methaniminium chloride] | 
5 |  | 10 to 32 µg/mL | 1 to 10 µg/mL | Cl.N=C(N)N/N=C/c1cccc(OCc2cccc(Cl)c2)c1Cl [Compound 51m, (E)-Amino(2-(2-chloro-3-((3-chlorobenzyl)oxy)benzylidene)hydrazinyl) methaniminium chloride] | 
6 |  | 32 to 100 µg/mL | 32 to 100 µg/mL | Cl.N=C(N)N/N=C/c1nccn1Cc1cccc(Cl)c1 [Compound 61a, (E)-amino(2-((1-(3-chlorobenzyl)-1H-imidazol-2-yl)methylene)hydrazinyl) methaniminium chloride] | 
7 |  | 10 to 32 µg/mL | 10 to 32 µg/mL | Cl.N=C(N)N/N=C/c1nccn1Cc1ccc(Cl)cc1 [Compound 61b, (E)-Amino(2-((1-(4-chlorobenzyl)-1H-imidazol-2-yl)methylene)hydrazinyl) methaniminium chloride] | 
8 |  | 32 to 100 µg/mL | 32 to 100 µg/mL | Cl.N=C(N)N/N=C/c1nccn1Cc1cccc(C(F)(F)F)c1 [Compound 61c, (E)-Amino(2-((1-(3-(trifluoromethyl)benzyl)-1H-imidazol-2-yl)methylene) hydrazinyl)methaniminium chloride] | 
9 |  | 10 to 32 µg/mL | 1 to 10 µg/mL | Cl.N=C(N)N/N=C/c1nccn1Cc1ccc(C(F)(F)F)cc1 [Compound 61d, (E)-Amino(2-((1-(4-(trifluoromethyl)benzyl)-1H-imidazol-2-yl)methylene) hydrazinyl)methaniminium chloride] | 
10 |  | 10 to 32 µg/mL | 32 to 100 µg/mL | Cl.N=C(N)N/N=C/c1cccn1Cc1cccc(Cl)c1 [Compound 61e, (E)-Amino(2-((1-(3-chlorobenzyl)-1H-pyrrol-2-yl)methylene)hydrazinyl) methaniminium chloride] | 
11 |  | 10 to 32 µg/mL | 32 to 100 µg/mL | Cl.N=C(N)N/N=C/c1cccn1Cc1ccc(Cl)cc1 [Compound 61f, (E)-Amino(2-((1-(4-chlorobenzyl)-1H-pyrrol-2-yl)methylene)hydrazinyl) methaniminium chloride] | 
12 |  | 10 to 32 µg/mL | 10 to 32 µg/mL | Cl.N=C(N)N/N=C/c1cccn1Cc1cccc(C(F)(F)F)c1 [Compound 61g, (E)-Amino(2-((1-(3-(trifluoromethyl)benzyl)-1H-pyrrol-2-yl)methylene) hydrazinyl)methaniminium chloride] | 
13 |  | 10 to 32 µg/mL | 10 to 32 µg/mL | Cl.N=C(N)N/N=C/c1cccn1Cc1ccc(C(F)(F)F)cc1 [Compound 61h, (E)-Amino(2-((1-(4-(trifluoromethyl)benzyl)-1H-pyrrol-2-yl)methylene) hydrazinyl)methaniminium chloride] | 

The remaining lines, values behind:

Row | SMILES | melting point | MIC [1, 3] | MIC ([2]; Escherichia coli strain JM109) | other results
14 | Cl.N=C(N)N/N=C/c1cccc(OCc2ccc(Cl)cc2)c1 | 191 to 193 °C |  |  | 
15 | Cl.N=C(N)N/N=C/c1cccc(OCc2cccc(C(F)(F)F)c2)c1Cl | 198 to 201 °C |  |  | 
16 | N=C(N)Nc1cccc2c1CCCC2.O=C(O)C(F)(F)F [Compound 23d, 1-(5,6,7,8-tetrahydronaphthalen-1-yl)guanidine 2,2,2-trifluoroacetate] | 153 to 155 °C | > 100 µg/mL | > 100 µg/mL | 
17 | CC(=O)O.N=C(N)NN=Cc1cccc(OCc2cccc(C(F)(F)F)c2Cl)c1 [Compound 49b, 1-{[(3-{[2-chloro-3-(trifluoromethyl)phenyl]methoxy}phenyl)methylidene]amino} guanidine acetate] | 190 to 192 °C | 1 to 10 µg/mL | 1 to 10 µg/mL | 
18 | Cl.N=C(N)N/N=C/c1cccc(OCc2ccc(C(F)(F)F)cc2)c1 [Compound 49d, (E)-Amino(2-(3-((4-(trifluoromethyl)benzyl)oxy)benzylidene) hydrazinyl) methaniminium chloride] | 176 to 179 °C |  |  | MIC S. aureus [1, 3]: ++ (MIC 10-32 μg/mL); MIC E. coli ([2]; Escherichia coli strain JM109): +++ (MIC 1-10 μg/mL)
19 | COc1cccc(COc2cccc(/C=N/NC(=N)N)c2Cl)c1Cl.Cl [Compound 51a, (E)-Amino(2-(2-chloro-3-((2-chloro-3-methoxybenzyl)oxy)benzylidene) hydrazinyl)methaniminium chloride] | 258 to 260 °C | 32 to 100 µg/mL | 32 to 100 µg/mL | 
20 | Cl.N=C(N)N/N=C/c1cccc(OCc2ccccc2)c1Cl [Compound 51b, (E)-Amino(2-(3-(benzyloxy)-2-chlorobenzylidene)hydrazinyl)methaniminium chloride] | 203 to 205 °C | 1 to 10 µg/mL | 1 to 10 µg/mL | 
21 | Cl.N=C(N)N/N=C/c1cccc(OCc2ccc(Cl)cc2)c1Cl [Compound 51c, (E)-Amino(2-(2-chloro-3-((4-chlorobenzyl)oxy)benzylidene)hydrazinyl) methaniminium chloride] | 237 to 239 °C | 1 to 10 µg/mL | 1 to 10 µg/mL | 
22 | N=C(N)NCc1cccc(N)c1.O=C(O)C(F)(F)F [Compound 53a, Amino((3-aminobenzyl)amino)methaniminium 2,2,2-trifluoroacetate] |  |  |  | MIC [1]: 32 to 100 µg/mL; MIC [2]: 32 to 100 µg/mL
23 | N=C(N)NCc1ccc(N)cc1.O=C(O)C(F)(F)F [Compound 53b, Amino((4-aminobenzyl)amino)methaniminium 2,2,2-trifluoroacetate] |  |  |  | MIC [1]: 32 to 100 µg/mL; MIC [2]: 32 to 100 µg/mL
24 | N=C(N)NCc1ccc(NS(=O)(=O)c2cccc(Cl)c2)cc1.O=C(O)C(F)(F)F [Compound 55a, Amino((4-((3-chlorophenyl)sulfonamido)benzyl)amino)methaniminium 2,2,2-trifluoroacetate] |  | 32 to 100 µg/mL | 32 to 100 µg/mL | 
25 | N=C(N)NCc1ccc(NS(=O)(=O)c2ccc(Cl)cc2)cc1.O=C(O)C(F)(F)F [Compound 55b, Amino((4-((4-chlorophenyl)sulfonamido)benzyl)amino)methaniminium 2,2,2-trifluoroacetate] |  | 32 to 100 µg/mL | 32 to 100 µg/mL | 
26 | N=C(N)NCc1ccc(NS(=O)(=O)c2cccc(Cl)c2Cl)cc1.O=C(O)C(F)(F)F [Compound 55c, Amino((4-((2,3-dichlorophenyl)sulfonamido)benzyl)amino)methaniminium 2,2,2-trifluoroacetate] |  | 32 to 100 µg/mL | 32 to 100 µg/mL | 
27 | N=C(N)NCc1ccc(NS(=O)(=O)c2cccc(C(F)(F)F)c2)cc1.O=C(O)C(F)(F)F [Compound 55d] |  |  |  | MIC S. aureus [1, 3]: + (32-100 μg/mL); MIC E. coli ([2]; Escherichia coli strain JM109): + (32-100 μg/mL)
28 | N=C(N)NCc1cccc(NS(=O)(=O)c2cccc(Cl)c2)c1.O=C(O)C(F)(F)F [Compound 55e, Amino((3-((3-chlorophenyl)sulfonamido)benzyl)amino)methaniminium 2,2,2-trifluoroacetate] |  | 32 to 100 µg/mL | 32 to 100 µg/mL | 
29 | N=C(N)NCc1cccc(NS(=O)(=O)c2ccc(Cl)cc2)c1.O=C(O)C(F)(F)F [Compound 55f, Amino((3-((4-chlorophenyl)sulfonamido)benzyl)amino)methaniminium 2,2,2-trifluoroacetate] |  | 32 to 100 µg/mL | 32 to 100 µg/mL | 
30 | N=C(N)NCc1cccc(NS(=O)(=O)c2cccc(Cl)c2Cl)c1.O=C(O)C(F)(F)F [Compound 55g, Amino((3-((2,3-dichlorophenyl)sulfonamido)benzyl)amino)methaniminium 2,2,2-trifluoroacetate] |  | 32 to 100 µg/mL | 32 to 100 µg/mL | 
31 | N=C(N)NCc1cccc(NS(=O)(=O)c2cccc(C(F)(F)F)c2)c1.O=C(O)C(F)(F)F [Compound 55h, Amino((3-((3-(trifluoromethyl)phenyl)sulfonamido)benzyl)amino) methaniminium 2,2,2-trifluoroacetate] |  | 32 to 100 µg/mL | 32 to 100 µg/mL | 
32 | N=C(N)NCc1cccc(NC(=O)c2ccccc2)c1.O=C(O)C(F)(F)F [Compound 57a, Amino((3-benzamidobenzyl)amino)methaniminium 2,2,2-trifluoroacetate] |  |  |  | MIC [1]: 32 to 100 µg/mL; MIC [2]: 32 to 100 µg/mL
33 | N=C(N)NCc1ccc(NC(=O)c2ccccc2)cc1.O=C(O)C(F)(F)F [Compound 57b, Amino((4-benzamidobenzyl)amino)methaniminium 2,2,2-trifluoroacetate] |  |  |  | MIC [1]: 32 to 100 µg/mL; MIC [2]: 32 to 100 µg/mL
34 | N=C(N)Nc1ccc(CNC(=O)c2ccccc2)cc1.O=C(O)C(F)(F)F [Compound 59a, Amino((4-(benzamidomethyl)phenyl)amino)methaniminium 2,2,2-trifluoroacetate] |  |  |  | MIC [1]: 32 to 100 µg/mL; MIC [2]: 32 to 100 µg/mL
35 | N=C(N)Nc1ccc(CNS(=O)(=O)c2ccccc2)cc1.O=C(O)C(F)(F)F [Compound 59b, Amino((4-(phenylsulfonamidomethyl)phenyl)amino)methaniminium 2,2,2-trifluoroacetate] |  |  |  | MIC [1]: 32 to 100 µg/mL; MIC [2]: 32 to 100 µg/mL
